The values that follow come from patent US20060040944A1, “5-Aza-7-deazapurine derivatives for treating Flaviviridae” (priority 2004, published 2006).

Where two headings read alike, the source gives them in different places.

In one series the test system is MT-4. The series can be described thus: MT-4 cell test (Table 2). To be noted: MT-4 cells, no virus named. The class given is cell-based.
The subject of a further series is DENV-2. The series can be described thus: Antiviral activity against DENV-2 (Table 2).
In the next series the test system is West Nile. The series can be described thus: Antiviral activity against West Nile virus (Table 2). To be noted: read-out: West Nile EC50.
Series [1] relates to host cells of the DENV-2 test (not named). The series can be described thus: Cytotoxicity assay (CC50), DENV-2 column. As to conditions: read-out: DENV-2 CC50; concentration reducing cell number by 50%; cell line not named.
Series [2] relates to host cells of the West Nile test (not named). The series can be described thus: Cytotoxicity assay (CC50), West Nile column. As to conditions: read-out: West Nile CC50; concentration reducing cell number by 50%; cell line not named.
In the next series the test system is Yellow Fever. The series can be described thus: microbe, parasite or virus in culture. In kind it is cell-based, Yellow fever virus, vaccine strain 17D (YFV-17D).
The subject of another series is BVDV. Description: microbe, parasite or virus in culture. The class given is cell-based. As to conditions: Bovine viral diarrhea virus isolates and strains, MDBK, read-out: BVDV EC50.
A short description of series [3]: in vitro. As to conditions: cattle (Bos taurus).
The nature of series [4]: Cytotoxicity assay (CC50), DENV-2 column.
A short description of series [5]: Cytotoxicity assay (CC50), West Nile column.
Series [6] in a line: in vitro. To be noted: hamster.

One may read the EC50 as the concentration giving half of the maximal effect. For `Nc1nc(=O)n2ccn([C@H]3C[C@H](O)[C@@H](CO)O3)c2n1` [2-amino-8-(β-D-2-deoxyribo-furanosyl)-imidazo[1,2-a]-s-triazin-4-one], the EC50 in the series with MT-4 was greater than 100 µM; with DENV-2 (read-out: DENV-2 EC50, DENV-2) it was greater than 100 µM; in the series with West Nile, greater than 100 µM; in the series on Yellow Fever (read-out: Yellow Fever EC50) it was greater than 100 µM. The CC50 (in the series with BHK-21 cells; in series [1]; in series [2]; with BT cells) was greater than 100 µM in each case.

With `Nc1nc(=O)n2ccn([C@@H]3O[C@H](CO)[C@@H](O)[C@H]3O)c2n1` [2-amino-8-(β-D-ribo-furanosyl)-imidazo[1,2-a]-s-triazin-4-one], the EC50 in the series with MT-4 (Homo sapiens, MT4) is greater than 100 µM; in the series with BVDV, 31 µM; in the series on DENV-2 (Dengue virus, DENV2, read-out: DENV-2 EC50), greater than 100 µM; in the series on West Nile, greater than 100 µM; with Yellow Fever (Yellow fever virus, BHK-21, read-out: Yellow Fever EC50) it was greater than 100 µM. The CC50 in “in vitro [3]” and in “in vitro [6]” was greater than 100 µM in each case. For the same compound, the CC50 at 4 days in series [4] and in [5] was greater than 100 µM throughout.
